{
  "source": "paper PMC7070898",
  "about": "(Clinical and Translational Science, 2019)",
  "key": {"[1]": {"assay": "Plasma pharmacokinetics, noncompartmental, SAD/MAD trial", "assay_type": "in vivo, human", "settings": "for Vd/F / half-life: human, in vivo; for Vd/F: Vz/F, N 9, geometric mean (CV% GM)"}, "[2]": {"assay": "Holter ECG, concentration-QTcF, by-time point and categorical analysis", "assay_type": "in vivo, human", "settings": "for mean ΔΔQTcF, by‐time point analysis: 100 mg dose group (n = 6); for Predicted mean ΔΔQTcF: linear mixed model; for Cmax: human, in vivo, Geometric mean Cmax"}, "[3]": {"system": "B cell and basophil activation", "settings": "human cellular assays ref 8; cited from earlier work"}, "[4]": {"system": "interferon‐accelerated systemic lupus erythematosus", "settings": "mouse model of interferon‐accelerated systemic lupus erythematosus ref 8; cited from earlier work"}, "[5]": {"system": "collagen‐induced arthritis", "settings": "collagen‐induced arthritis mouse model ref 8; cited from earlier work"}, "[6]": {"system": "experimental autoimmune encephalomyelitis", "settings": "B cell‐dependent and T cell‐dependent EAE mouse models ref 9, 10; cited from earlier work"}},
  "data": [
    {"smiles": "C=CC(=O)N1CCC(CNc2ncnc(N)c2-c2ccc(Oc3ccccc3)cc2)CC1", "note": "[evobrutinib]", "values": [
      {"measurement": "Vd/F", "setting": "[1]; 25 mg, multiple-dose study day 1, 25 mg", "value": 498, "unit": "L"},
      {"measurement": "Vd/F", "setting": "[1]; 75 mg, multiple-dose study day 1, 75 mg", "value": 620, "unit": "L"},
      {"measurement": "Vd/F", "setting": "[1]; 200 mg, multiple-dose study day 1, 200 mg", "value": 647, "unit": "L"},
      {"measurement": "half-life", "setting": "[1]; 500 mg, geometric mean terminal half‐life (t1/2), single doses 350 and 500 mg", "value": "6.6 to 6.8", "unit": "h"},
      {"measurement": "half-life", "setting": "[1]; geometric mean terminal half‐life (t1/2), single doses 25–200 mg", "value": "1.8 to 2.6", "unit": "h"},
      {"measurement": "half-life", "setting": "[1]; half‐life (relevant t1/2), overall summary, all doses", "value": "~2", "unit": "h"},
      {"measurement": "dose proportionality of AUC0–24h and Cmax", "setting": "[1]; multiple dosing of 25–200 mg, power model", "value": "Dose proportionality of AUC0–24h and Cmax was demonstrated"},
      {"measurement": "time dependency of PK", "setting": "[1]; part 2, day 14 vs day 1", "value": "no time dependency"},
      {"measurement": "Apparent clearance across doses", "setting": "[1]; single dosing 25–500 mg, part 1", "value": "2,553–3,995 mL/minute"},
      {"measurement": "Geometric mean Cmax", "setting": "[2]; 25 mg dose group, day 1, parts 1 and 2 pooled", "value": 86.48, "unit": "ng/mL"},
      {"measurement": "treatment‐emergent T wave morphological abnormalities", "setting": "[2]; 50 mg and 100 mg dose groups, day 1, 6‐hour and 8‐hour postdose", "value": "reported in two evobrutinib‐treated subjects"},
      {"measurement": "mean ΔΔQTcF, by‐time point analysis", "setting": "[2]; 6‐hour postdose", "value": 7.1, "unit": "ms"},
      {"measurement": "mean ΔΔQTcF, by‐time point analysis", "setting": "[2]; 8‐hour postdose", "value": 5.6, "unit": "ms"},
      {"measurement": "mean ΔΔQTcF range", "setting": "[2]; 100 mg dose group, three time points", "value": "5.6 to 7.2", "unit": "ms"},
      {"measurement": "Geometric mean Cmax", "setting": "[2]; 500 mg dose group, day 1", "value": "1,512.3 ng/mL"},
      {"measurement": "subjects with change from baseline in QTcF between 30 ms and 60 ms", "setting": "[2]; 2 of 81 subjects, both in the 200 mg dose group", "value": 2.5, "unit": "%"},
      {"measurement": "mean ΔΔQTcF over the range of doses", "setting": "[2]; all time points, except the 100 mg dose group", "value": "< 5", "unit": "ms"},
      {"measurement": "absolute QTcF value", "setting": "[2]; any dose group, any time point", "value": "≤ 450", "unit": "ms"},
      {"measurement": "Predicted mean ΔΔQTcF", "setting": "[2]; at geometric mean Cmax of 75 mg dose group", "value": -0.82, "unit": "ms"},
      {"measurement": "Predicted mean ΔΔQTcF", "setting": "[2]; at geometric mean Cmax of 200 mg dose group", "value": -0.94, "unit": "ms"},
      {"measurement": "Predicted mean ΔΔQTcF", "setting": "[2]; at geometric mean Cmax of 350 mg dose group", "value": -0.98, "unit": "ms"},
      {"measurement": "Cmax", "setting": "[2]; 50 mg, 50 mg dose group, day 1", "value": 234, "unit": "ng/mL"},
      {"measurement": "Cmax", "setting": "[2]; 75 mg, 75 mg dose group, day 1", "value": 254, "unit": "ng/mL"},
      {"measurement": "Cmax", "setting": "[2]; 100 mg, 100 mg dose group, day 1", "value": 309, "unit": "ng/mL"},
      {"measurement": "Cmax", "setting": "[2]; 350 mg, 350 mg dose group, day 1", "value": 846, "unit": "ng/mL"},
      {"measurement": "inhibition of B cell and basophil activation", "setting": "[3]", "value": "potently inhibits B cell and basophil activation"},
      {"measurement": "disease activity", "setting": "[4]", "value": "robust reduction in disease activity"},
      {"measurement": "rheumatoid arthritis‐like symptoms", "setting": "[5]", "value": "rheumatoid arthritis‐like symptoms were inhibited"},
      {"measurement": "central nervous system inflammation and disease severity", "setting": "[6]", "value": "limited central nervous system inflammation and disease severity"}
    ]}
  ]
}
